This is an account of results in ChEMBL document CHEMBL1201862, “PubChem BioAssay data set” (2004).

Some test systems named below: A549; ACHN; CCRF-CEM; HCT-116; KM12; MOLT-4; Malme-3M; NCI-H23; NCI-H522; OVCAR-8; SK-MEL-2; SK-OV-3; SNB-75; SR; UACC-62; CAKI-1; LOX IMVI.
Holding throughout (assay): DTP human tumour cell line panel, 48 h

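Step 1: Grow cells in 96-well plates. Step 2: Expose to compound for 48 hours at 5 concentrations. Step 3: Interpolate endpoints linearly; if unreached, use highest concentration. GI50 is the concentration that inhibits growth by half.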 Active and inactive are the calls of the source. No stated cut-off is given here; in the data, active = GI50 up to about 1.1 µM and inactive = higher.

A word on the GI50: it is the concentration that inhibits growth by half. As to `N/N=c1\c2ccccc2c2cc3c(cc12)/c(=N/N)c1ccccc13`, the GI50 with A549, in the assay on ACHN, with CCRF-CEM, with HCT-116, in the assay with KM12 and in the assay on MOLT-4 was > 100 µM (inactive) each time. Also, the GI50 in the assay on Malme-3M, in the assay on NCI-H23, in the assay on NCI-H522, in the assay with OVCAR-8, in the assay with SK-MEL-2 and in the assay on SK-OV-3 was > 100 µM (inactive) in each case. The GI50 in the assay on SNB-75 is 59.4 µM (inactive); in the assay on SR, 76.2 µM (inactive); in the assay with UACC-62 it was > 100 µM (inactive).

`COc1ccc(OC2(c3cc(OC)ccc3OC)OC(=O)c3ccccc32)cc1` (stereo not drawn): the GI50 in the assay with A549, in the assay on ACHN, in the assay on CAKI-1, in the assay with CCRF-CEM, in the assay with HCT-116 and in the assay with KM12 was > 100 µM (inactive) in each case. The GI50 in the assay with LOX IMVI, in the assay on MOLT-4, with Malme-3M, in the assay with NCI-H23, in the assay on NCI-H522 and with OVCAR-8 was > 100 µM (inactive) each time. The GI50 with SK-MEL-2, in the assay on SK-OV-3, in the assay with SNB-75, in the assay on SR and with UACC-62 was > 100 µM (inactive) each time.

For the compound `O=C(COC(=O)c1cccc2c(=O)c3ccccc3[nH]c12)Nc1ccccc1`, the GI50 in the assay with A549 was 50.8 µM (inactive); in the assay with ACHN, 41.8 µM (inactive); in the assay with CAKI-1, 45.8 µM (inactive); with HCT-116 it was 24.2 µM (inactive); with KM12, 21.1 µM (inactive); with LOX IMVI, 24.2 µM (inactive). Further, the GI50 was 17.1 µM (inactive) in the assay with MOLT-4; 35.9 µM (inactive) in the assay on Malme-3M; 19.5 µM (inactive) in the assay on NCI-H23; 25.3 µM (inactive) in the assay with NCI-H522; 37 µM (inactive) with OVCAR-8; > 100 µM (inactive) with SK-OV-3. In addition, the GI50 with SNB-75 was 31.8 µM (inactive); with SR, 18.9 µM (inactive); in the assay on UACC-62, 26.4 µM (inactive).

For the compound `Cc1nc2c(n1Cc1ccc(Cl)cc1)C(=O)c1ccccc1C2=O`, the GI50 is 17.4 µM (inactive) with A549; 27 µM (inactive) with ACHN; 4.67 µM (inactive) in the assay with CCRF-CEM; 2.6 µM (inactive) in the assay on HCT-116; > 75 µM (inactive) in the assay with KM12; 2.05 µM (inactive) with LOX IMVI. In addition, the GI50 with MOLT-4 is 3.14 µM (inactive); in the assay with Malme-3M, 35.6 µM (inactive); in the assay on NCI-H23 it was > 75 µM (inactive); in the assay with NCI-H522 it was 5.52 µM (inactive); in the assay with OVCAR-8, 8.99 µM (inactive); in the assay with SK-MEL-2, > 75 µM (inactive). Further, the GI50 with SK-OV-3 is > 75 µM (inactive); in the assay on SNB-75, 19.9 µM (inactive); in the assay on SR, 1.32 µM (inactive); in the assay with UACC-62 it was 3.36 µM (inactive).

In the case of `Cc1noc2cccc(OCc3ccccc3)c12`, the GI50 in the assay with A549 is 44.1 µM (inactive); with ACHN it was 50.7 µM (inactive); in the assay with CAKI-1 it was 38.1 µM (inactive); with CCRF-CEM, 13.5 µM (inactive); in the assay with HCT-116, 48.1 µM (inactive); with KM12, 91.2 µM (inactive). Also, the GI50 is 51.3 µM (inactive) with LOX IMVI; 39.5 µM (inactive) in the assay on MOLT-4; > 100 µM (inactive) in the assay on Malme-3M; > 100 µM (inactive) with NCI-H23; 13.2 µM (inactive) in the assay on NCI-H522; 67.1 µM (inactive) in the assay on OVCAR-8. Also, the GI50 is 23.8 µM (inactive) in the assay on SK-MEL-2; > 100 µM (inactive) with SK-OV-3; 30.6 µM (inactive) in the assay on SNB-75; 34.6 µM (inactive) in the assay on SR; > 100 µM (inactive) with UACC-62.

Consider `Cn1ccnc1Cn1cc(-c2cccc(-c3cn[nH]c3)c2)cn1`, for which the GI50 in the assay with A549 was 39.6 µM (inactive); in the assay with ACHN it was 28.1 µM (inactive); in the assay with CAKI-1 it was 15.2 µM (inactive); with CCRF-CEM, 58.5 µM (inactive); in the assay on HCT-116, 50.7 µM (inactive); with KM12, > 100 µM (inactive). Moreover, the GI50 in the assay on LOX IMVI was 88.5 µM (inactive); in the assay with MOLT-4, 63.4 µM (inactive); with NCI-H522, 22.6 µM (inactive); in the assay on OVCAR-8, > 100 µM (inactive); in the assay on SK-MEL-2 it was > 100 µM (inactive); with SK-OV-3, 0.753 µM (active). The results for the GI50 with SNB-75, in the assay on SR and with UACC-62 were 23.2 µM (inactive), 80 µM (inactive) and 9.23 µM (inactive), respectively.

Turning to `O=[N+]([O-])c1ccc2nc(/C(=N/Nc3ccccc3)C(O)c3ccc(Cl)cc3Cl)c(O)nc2c1` (stereo not drawn), the GI50 in the assay on A549 was > 100 µM (inactive); in the assay with ACHN it was > 100 µM (inactive); in the assay with CCRF-CEM, 22.3 µM (inactive); in the assay with HCT-116, > 100 µM (inactive); in the assay with KM12, 49.3 µM (inactive); in the assay on LOX IMVI it was > 100 µM (inactive). The GI50 in the assay on MOLT-4 is 84.5 µM (inactive); with Malme-3M, > 100 µM (inactive); with NCI-H23, > 100 µM (inactive); in the assay with NCI-H522 it was 15.9 µM (inactive); in the assay on OVCAR-8 it was > 100 µM (inactive); in the assay with SK-MEL-2, > 100 µM (inactive). Besides, the GI50 with SK-OV-3 was > 100 µM (inactive); in the assay with SNB-75, > 100 µM (inactive); with SR, 29.6 µM (inactive); in the assay with UACC-62, 48.5 µM (inactive).

For `COc1cc(C2c3cc4c(cc3[C@@H](OCCN)[C@H]3COC(=O)C23)OCO4)cc(OC)c1O` (stereo partly drawn), the GI50 with A549 is 0.0518 µM (active); with ACHN, 0.181 µM (active); with CAKI-1 it was 0.135 µM (active); in the assay on CCRF-CEM it was 0.0316 µM (active); in the assay with HCT-116 it was 0.995 µM (active); in the assay with KM12, 0.491 µM (active). Moreover, the GI50 with LOX IMVI was 0.0434 µM (active); in the assay on MOLT-4, < 0.01 µM (active); in the assay with Malme-3M it was 0.136 µM (active); with NCI-H23, 0.136 µM (active); in the assay with NCI-H522 it was 0.155 µM (active); in the assay on OVCAR-8, 0.55 µM (active). The GI50 with SK-MEL-2 is 0.322 µM (active); in the assay on SK-OV-3, 0.129 µM (active); in the assay on SNB-75, 0.238 µM (active); in the assay with SR, < 0.0191 µM (active); in the assay with UACC-62, 0.0843 µM (active).

Regarding `COC(=O)[C@H]1[C@H]2C[C@@H]3c4[nH]c5cc(OC)ccc5c4CCN3C[C@H]2C[C@@H](OC(=O)c2cc(OC)c(OC)c(OC)c2)[C@@H]1OC` [RESERPINE], the GI50 with A549 was 18 µM (inactive); in the assay with ACHN, 15 µM (inactive); with CAKI-1, 18.1 µM (inactive); in the assay with CCRF-CEM, 13.2 µM (inactive); in the assay on HCT-116, 13.7 µM (inactive); in the assay on KM12 it was 18.4 µM (inactive). Moreover, the GI50 is 7.19 µM (inactive) in the assay on MOLT-4; 17.5 µM (inactive) in the assay with Malme-3M; 18.1 µM (inactive) in the assay with NCI-H23; 17.9 µM (inactive) in the assay with NCI-H522; 19.6 µM (inactive) in the assay on OVCAR-8; 19.3 µM (inactive) in the assay with SK-MEL-2. The GI50 in the assay with SNB-75 is 2.7 µM (inactive); in the assay with SR, 6.12 µM (inactive); in the assay on UACC-62 it was 13.3 µM (inactive).
